Drawing on patent US20240190890A1, “MK2 INHIBITORS AND USES THEREOF” (Bristol-Myers Squibb Company, priority 2022, published 2024), this text covers IC50 for 27 compounds.

SMILES strings stand for the structures.

Chain of p38a activated, mitogen-activated protein kinase-activated protein kinase 2 (MAPKAP-K2 or MK2) enzyme (P49137 whole entry): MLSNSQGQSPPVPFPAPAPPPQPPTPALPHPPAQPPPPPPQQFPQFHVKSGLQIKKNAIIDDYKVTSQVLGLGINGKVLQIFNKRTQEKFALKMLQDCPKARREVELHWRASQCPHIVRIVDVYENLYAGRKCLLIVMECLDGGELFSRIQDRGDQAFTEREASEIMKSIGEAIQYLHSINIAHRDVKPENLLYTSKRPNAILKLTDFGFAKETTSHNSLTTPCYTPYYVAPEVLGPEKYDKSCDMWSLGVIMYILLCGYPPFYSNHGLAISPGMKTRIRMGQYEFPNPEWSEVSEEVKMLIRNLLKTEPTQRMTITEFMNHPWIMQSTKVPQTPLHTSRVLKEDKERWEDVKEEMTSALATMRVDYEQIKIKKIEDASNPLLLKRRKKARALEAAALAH

The experiment addresses p38a activated, mitogen-activated protein kinase-activated protein kinase 2 (MAPKAP-K2 or MK2) enzyme (Homo sapiens (Human), UniProt P49137). Nature of the experiment: MK2 Omnia continuous-read kinase assay for compound potency. Type of experiment: biochemical. The conditions noted are these: [MK-2]=0.4 nM, [ATP]=10 μM, [ST3-Sox]=10 μM; room temperature. The method, boiled down: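 Continuous Sox-peptide fluorescence read (ex360/em485) every 71 s over 2 h at room temperature. Reactions: 10 μM each of ATP (at apparent Km) and S/T3-Sox, 0.4 nM p38a-activated MK2, pH 7.5 Tris/MgCl2 buffer. Initial rates yield % inhibition and IC50; single-exponential kobs values yield apparent kinact/KI.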
As usually defined, the IC50 is the concentration that gives 50% inhibition. As for `C#Cc1cc(-c2ccc3c(ccc4sc5c(c43)NC[C@@H](C)NC5=O)n2)cc(C)n1` [Example I-112, (R)-3-(2-ethynyl-6-methylpyridin-4-yl)-10-methyl-9,10,11,12-tetrahydro-8H-[1,4]diazepino[5′,6′:4,5]thieno[3,2-f]quinolin-8-one], the 50% inhibitory concentration (IC50) is 152 nM. As to `C#Cc1cc(-c2ccc3c(ccc4sc5c(c43)NC[C@@H](C)NC5=O)n2)cc(C2CCN(C)CC2)n1` [Example I-107, (R)-3-(2-ethynyl-6-(1-methylpiperidin-4-yl)pyridin-4-yl)-10-methyl-9,10,11,12-tetrahydro-8H-[1,4]diazepino[5′,6′:4,5]thieno[3,2-f]quinolin-8-one], the half-maximal inhibitory concentration (IC50) is 22 nM.

On to `C=Cc1cc(-c2ccc3c(ccc4sc5c(c43)NC[C@@H](C)NC5=O)n2)c(F)cn1` [Example I-70, (R)-3-(5-fluoro-2-vinylpyridin-4-yl)-10-methyl-9,10,11,12-tetrahydro-8H-[1,4]diazepino[5′,6′:4,5]thieno[3,2-f]quinolin-8-one], for which the half-maximal inhibitory concentration (IC50) turned out to be 64 nM. For `C#Cc1ncc(OC)c(-c2ccc3c(ccc4sc5c(c43)NC[C@@H](C)NC5=O)n2)n1` [Example I-42, (R)-3-(2-ethynyl-5-methoxypyrimidin-4-yl)-10-methyl-9,10,11,12-tetrahydro-8H-[1,4]diazepino[5′,6′:4,5]thieno[3,2-f]quinolin-8-one], the IC50 was found to be 233 nM.

Turning to `C#Cc1cc(-c2ccc3c(ccc4sc5c(c43)NC[C@@H](C)NC5=O)n2)nc(N2CCN(C)CC2)n1` [Example I-59, (R)-3-(6-ethynyl-2-(4-methylpiperazin-1-yl)pyrimidin-4-yl)-10-methyl-9,10,11,12-tetrahydro-8H-[1,4]diazepino[5′,6′:4,5]thieno[3,2-f]quinolin-8-one], the IC50 came out at 3 nM. With `C=Cc1cc(-c2ccc3c(ccc4sc5c(c43)NC[C@@H](C)NC5=O)n2)c(COC)cn1` [Example I-253, (R)-3-(5-(methoxymethyl)-2-vinylpyridin-4-yl)-10-methyl-9,10,11,12-tetrahydro-8H-[1,4]diazepino[5′,6′:4,5]thieno[3,2-f]quinolin-8-one], the half-maximal inhibitory concentration (IC50) was found to be 6 nM. For `C/C=C/c1cc(-c2ccc3c(ccc4sc5c(c43)NC[C@@H](C)NC5=O)n2)c(C)cn1` [Example I-265, (R,E)-10-methyl-3-(5-methyl-2-(prop-1-en-1-yl)pyridin-4-yl)-9,10,11,12-tetrahydro-8H-[1,4]diazepino[5′,6′:4,5]thieno[3,2-f]quinolin-8-one], the IC50 was found to be 210 nM.

As for `C=Cc1cc(-c2ccc3c(ccc4sc5c(c43)NC[C@@H](C)NC5=O)n2)cc(CO)n1` [Example I-99, (R)-3-(2-(hydroxymethyl)-6-vinylpyridin-4-yl)-10-methyl-9,10,11,12-tetrahydro-8H-[1,4]diazepino[5′,6′:4,5]thieno[3,2-f]quinolin-8-one], the IC50 turned out to be 2 nM. For the compound `C#Cc1cc(-c2ccc3c(ccc4sc5c(c43)NC[C@@H](C)NC5=O)n2)c(OCCN2CCOCC2)nn1` [Example I-134, (R)-3-(6-ethynyl-3-(2-morpholinoethoxy)pyridazin-4-yl)-10-methyl-9,10,11,12-tetrahydro-8H-[1,4]diazepino[5′,6′:4,5]thieno[3,2-f]quinolin-8-one], the IC50 is 137 nM. Regarding `C=Cc1cc(-c2ccc3c(ccc4sc5c(c43)NC[C@@H](C)NC5=O)n2)c(N(C)C)nn1` [Example I-129, (R)-3-(3-(dimethylamino)-6-vinylpyridazin-4-yl)-10-methyl-9,10,11,12-tetrahydro-8H-[1,4]diazepino[5′,6′:4,5]thieno[3,2-f]quinolin-8-one], the IC50 is 106 nM.

In the case of `C[C@@H]1CNc2c(sc3ccc4nc(-c5nc(Cl)nc6c5CN(C)CC6)ccc4c23)C(=O)N1` [Example I-192, (R)-3-(2-chloro-6-methyl-5,6,7,8-tetrahydropyrido[4,3-d]pyrimidin-4-yl)-10-methyl-9,10,11,12-tetrahydro-8H-[1,4]diazepino[5′,6′:4,5]thieno[3,2-f]quinolin-8-one], the half-maximal inhibitory concentration (IC50) is 257 nM. Regarding `C#Cc1cc(-c2ccc3c(ccc4sc5c(c43)NC[C@@H](C)NC5=O)n2)cc(N2CCOCC2)n1` [Example I-157, (R)-3-(2-ethynyl-6-morpholinopyridin-4-yl)-10-methyl-9,10,11,12-tetrahydro-8H-[1,4]diazepino[5′,6′:4,5]thieno[3,2-f]quinolin-8-one], the half-inhibitory concentration (IC50) came to 214 nM. Take `C=Cc1cc(-c2ccc3c(ccc4sc5c(c43)NC[C@@H](C)NC5=O)n2)ncn1` [Example I-34, (R)-10-methyl-3-(6-vinylpyrimidin-4-yl)-9,10,11,12-tetrahydro-8H-[1,4]diazepino[5′,6′:4,5]thieno[3,2-f]quinolin-8-one]: the IC50 stood at 13 nM.

Consider `C[C@@H]1CNc2c(sc3ccc4nc(-c5ccnc(Cl)c5F)ccc4c23)C(=O)N1` [Example I-221, (R)-3-(2-chloro-3-fluoropyridin-4-yl)-10-methyl-9,10,11,12-tetrahydro-8H-[1,4]diazepino[5′,6′:4,5]thieno[3,2-f]quinolin-8-one], for which the IC50 was found to be 212 nM. As for `C=Cc1cc(-c2ccc3c(ccc4sc5c(c43)NC[C@@H](C)NC5=O)n2)cc(N2CCOCC2)n1` [Example I-156, (R)-10-methyl-3-(2-morpholino-6-vinylpyridin-4-yl)-9,10,11,12-tetrahydro-8H-[1,4]diazepino[5′,6′:4,5]thieno[3,2-f]quinolin-8-one], the IC50 amounted to 23 nM. Under `C[C@@H]1CNc2c(sc3ccc4nc(-c5cc(Cl)ncc5C(F)F)ccc4c23)C(=O)N1` [Example I-93, (R)-3-(2-chloro-5-(difluoromethyl)pyridin-4-yl)-10-methyl-9,10,11,12-tetrahydro-8H-[1,4]diazepino[5′,6′:4,5]thieno[3,2-f]quinolin-8-one] stands 238 nM; under `C=Cc1cc(-c2ccc3c(ccc4sc5c(c43)NC[C@@H](C)NC5=O)n2)cc(C)n1` [Example I-110, (R)-10-methyl-3-(2-methyl-6-vinylpyridin-4-yl)-9,10,11,12-tetrahydro-8H-[1,4]diazepino[5′,6′:4,5]thieno[3,2-f]quinolin-8-one], 8 nM.

Regarding `C#Cc1cc(-c2ccc3c(ccc4sc5c(c43)NC[C@@H](C)NC5=O)n2)c(NC)nn1` [Example I-104, (R)-3-(6-ethynyl-3-(methylamino)pyridazin-4-yl)-10-methyl-9,10,11,12-tetrahydro-8H-[1,4]diazepino[5′,6′:4,5]thieno[3,2-f]quinolin-8-one], the IC50 was found to be 194 nM. In the case of `C=Cc1cc(-c2ccc3c(ccc4sc5c(c43)NC[C@@H](C)NC5=O)n2)c(CN2CC3(COC3)C2)cn1` [Example I-263, (R)-3-(5-((2-oxa-6-azaspiro[3.3]heptan-6-yl)methyl)-2-vinylpyridin-4-yl)-10-methyl-9,10,11,12-tetrahydro-8H-[1,4]diazepino[5′,6′:4,5]thieno[3,2-f]quinolin-8-one], the IC50 worked out at 47 nM. With `C#Cc1cc(-c2ccc3c(ccc4sc5c(c43)NC[C@@H](C)NC5=O)n2)c(F)cn1` [Example I-71, (R)-3-(2-ethynyl-5-fluoropyridin-4-yl)-10-methyl-9,10,11,12-tetrahydro-8H-[1,4]diazepino[5′,6′:4,5]thieno[3,2-f]quinolin-8-one], the IC50 was found to be 39 nM.

Turning to `C=Cc1cc(-c2ccc3c(ccc4sc5c(c43)NC[C@@H](C)NC5=O)n2)cc(N2CCCCC2)n1` [Example I-177, (R)-10-methyl-3-(2-(piperidin-1-yl)-6-vinylpyridin-4-yl)-9,10,11,12-tetrahydro-8H-[1,4]diazepino[5′,6′:4,5]thieno[3,2-f]quinolin-8-one], the IC50 was 140 nM. For the compound `C=Cc1cc(-c2ccc3c(ccc4sc5c(c43)NC[C@@H](C)NC5=O)n2)c(F)c(CN2CCOCC2)n1` [Example I-198, (R)-3-(3-fluoro-2-(morpholinomethyl)-6-vinylpyridin-4-yl)-10-methyl-9,10,11,12-tetrahydro-8H-[1,4]diazepino[5′,6′:4,5]thieno[3,2-f]quinolin-8-one], the IC50 worked out at 106 nM. Regarding `C=C(F)c1cc(-c2ccc3c(ccc4sc5c(c43)NC[C@@H](C)NC5=O)n2)ccn1` [Example I-108, (R)-3-(2-(1-fluorovinyl)pyridin-4-yl)-10-methyl-9,10,11,12-tetrahydro-8H-[1,4]diazepino[5′,6′:4,5]thieno[3,2-f]quinolin-8-one], the IC50 was determined as 122 nM.

`C=Cc1nc(C)n(-c2ccc3c(ccc4sc5c(c43)NC[C@@H](C)NC5=O)n2)n1` [Example I-261, (R)-10-methyl-3-(5-methyl-3-vinyl-1H-1,2,4-triazol-1-yl)-9,10,11,12-tetrahydro-8H-[1,4]diazepino[5′,6′:4,5]thieno[3,2-f]quinolin-8-one]: the IC50 was 1000 nM. The result for `C#Cc1cc(-c2ccc3c(ccc4sc5c(c43)NC[C@@H](C)NC5=O)n2)cc(N2CCN(CC)CC2)n1` [Example I-174, (R)-3-(2-(4-ethylpiperazin-1-yl)-6-ethynylpyridin-4-yl)-10-methyl-9,10,11,12-tetrahydro-8H-[1,4]diazepino[5′,6′:4,5]thieno[3,2-f]quinolin-8-one] reads 98 nM; that for `C[C@@H]1CNc2c(sc3ccc4nc(-c5cc(Cl)nc(COC6CCNCC6)n5)ccc4c23)C(=O)N1` [Example I-14, (R)-3-(6-chloro-2-((piperidin-4-yloxy)methyl)pyrimidin-4-yl)-10-methyl-9,10,11,12-tetrahydro-8H-[1,4]diazepino[5′,6′:4,5]thieno[3,2-f]quinolin-8-one], 12 nM; that for `C=Cc1cc(C(F)(F)F)nn1-c1ccc2c(ccc3sc4c(c32)NC[C@@H](C)NC4=O)n1` [Example I-241, (R)-10-methyl-3-(3-(trifluoromethyl)-5-vinyl-1H-pyrazol-1-yl)-9,10,11,12-tetrahydro-8H-[1,4]diazepino[5′,6′:4,5]thieno[3,2-f]quinolin-8-one], 1000 nM.
